# Experiment: recombinant barcode read abundance after kanamycin selection (control-corrected) (log10(CPM+1)); higher = more efficient recombination; sequences stand for … in AGTGCAGAGAAAATCGGCCAGTTTTCTCTGCCTGCAGTCCGCATGCCGT…AGATTTATGCAGCGGACTGCCTTTCTCCCAAAGTGATAAACCGGACAGTATCATGGACCGGTTTTCCCGGTAATCCGTATTTGCAAGGTTGGTTTCACT; site = the 11-nt target
# Outline: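 Duplicate cultures were plated either on chloramphenicol/ampicillin LB agar, serving as control, or on chloramphenicol/ampicillin/kanamycin with 0.1 mM IPTG. These came from a pooled E. coli library co-electroporated with a donor plasmid, each member pairing a target with an IS621 bridge RNA target-binding loop. Recombination efficiency equals averaged, control-corrected counts per million of recombinant-junction barcodes. It is listed as log10(CPM+1).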
# 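Note: IS621 recombinase and bridge RNA in Escherichia coli cells.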
row,Sequence,recombinant barcode read abundance (log10)
1,CTAAGTCCTTGGGTTCTAACCTGTTGCAT (site CTAAATCCTAT),0.809
2,CTAAGTCCTTGGGTTCTAACCTGTTGCAT (site CTAACTCCTAT),0.0677
3,CTAAGTCCTTGGGTTCTAACCTGTTGCAT (site CTAAGTCCTAT),1.34
4,CTAAGTCCTTGGGTTCTAACCTGTTGCAT (site CTAATTCCTAT),0.116
5,CTAATAGCTTGGGTTCTAACCTGTTGCCA (site AGTCCGTCTAT),0.186
6,CTAATAGCTTGGGTTCTAACCTGTTGCCA (site CTAATAGCTTG),0.262
7,CTAATGACTTGGGTTCTAACCTGTTGCAC (site CTAATGACTGT),1.43
8,CTAATGACTTGGGTTCTAACCTGTTGCAC (site CTAATGCCTAT),0.227
9,CTAATGCCTTGGGTTCTAACCTGTTGCAT (site CTAATGACTGT),0.0624
10,CTAATGCCTTGGGTTCTAACCTGTTGCAT (site CTAATGCCTAT),0.175
11,CTAATTACTTGGGTTCTAACCTGTTGCAC (site CTAATTACTGT),0.249
12,CTAATTACTTGGGTTCTAACCTGTTGCAC (site GTAACTACTGT),0.114
13,CTAATTACTTGGGTTCTAACCTGTTGCCT (site CTAATTACTAG),0.946
14,CTAATTACTTGGGTTCTAACCTGTTGCCT (site CTACTTACTAG),0.0931
15,CTAATTACTTGGGTTCTAACCTGTTGCCT (site CTAGTTACTAG),0.159
16,CTAATTACTTGGGTTCTAACCTGTTGCCT (site CTATTTACTAG),0.196
17,CTAATTCCTTGGGTTCTAACCTGTTGCAT (site CTAAATCCTAT),0.0881
18,CTAATTCCTTGGGTTCTAACCTGTTGCAT (site CTAACTCCTAT),0.0994
19,CTAATTCCTTGGGTTCTAACCTGTTGCAT (site CTAAGTCCTAT),0.0341
20,CTAATTCCTTGGGTTCTAACCTGTTGCAT (site CTAATTCCTAT),0.252
21,CTACACTCTTGGGTTCTAACCTGTTGCCT (site CAACACTCTAG),1.07
22,CTACACTCTTGGGTTCTAACCTGTTGCCT (site CCACACTCTAG),0.409
23,CTACACTCTTGGGTTCTAACCTGTTGCCT (site CGACACTCTAG),0.28
24,CTACACTCTTGGGTTCTAACCTGTTGCCT (site CTACACTCTAG),2.18
25,CTACAGCCTTGGGTTCTAACCTGTTGCTT (site CTACAACCTAA),0.636
26,CTACAGCCTTGGGTTCTAACCTGTTGCTT (site CTACACCCTAA),0.0559

row,Sequence,recombinant barcode read abundance (log10)
1,CTACAGCCTTGGGTTCTAACCTGTTGCTT (site CTACAGCCTAA),0.798
2,CTACAGCCTTGGGTTCTAACCTGTTGCTT (site CTACATCCTAA),0.0933
3,CTACCAACTTGGGTTCTAACCTGTTGCCT (site CTACCAACTAG),0.41
4,CTACCAACTTGGGTTCTAACCTGTTGCCT (site CTACCACCTAG),0.0179
5,CTACCAACTTGGGTTCTAACCTGTTGCCT (site CTACCAGCTAG),0.124
6,CTACCAACTTGGGTTCTAACCTGTTGCCT (site CTACCATCTAG),0.0148
7,CTACCAGCTTGGGTTCTAACCTGTTGCCT (site CTACCAACTAG),0.191
8,CTACCAGCTTGGGTTCTAACCTGTTGCCT (site CTACCACCTAG),0.0143
9,CTACCAGCTTGGGTTCTAACCTGTTGCCT (site CTACCAGCTAG),1.17
10,CTACCAGCTTGGGTTCTAACCTGTTGCCT (site CTACCATCTAG),0.0991
11,CTACCATCTTGGGTTCTAACCTGTTGCCG (site CTACCATCTCG),0.255
12,CTACCATCTTGGGTTCTAACCTGTTGCCG (site CTACCGTCTCC),0.157
13,CTACCCTCTTGGGTTCTAACCTGTTGCAT (site CTAACCTCTAT),0.026
14,CTACCCTCTTGGGTTCTAACCTGTTGCAT (site CTACCCTCTAT),2.87
15,CTACCCTCTTGGGTTCTAACCTGTTGCAT (site CTAGCCTCTAT),0.0456
16,CTACCCTCTTGGGTTCTAACCTGTTGCAT (site CTATCCTCTAT),0.413
17,CTACCTTCTTGGGTTCTAACCTGTTGCCT (site CAACCTTCTAG),0.203
18,CTACCTTCTTGGGTTCTAACCTGTTGCCT (site CTACCTTCTAG),1.37
19,CTACGGACTTGGGTTCTAACCTGTTGCTG (site CTACGAACTCA),1.82
20,CTACGGACTTGGGTTCTAACCTGTTGCTG (site CTACGCACTCA),0.206
21,CTACGGACTTGGGTTCTAACCTGTTGCTG (site CTACGGACTCA),2.77
22,CTACGGACTTGGGTTCTAACCTGTTGCTG (site CTACGTACTCA),0.0171
23,CTACGTACTTGGGTTCTAACCTGTTGCCT (site ATACGTACTAG),0.00899
24,CTACGTACTTGGGTTCTAACCTGTTGCCT (site CTACGTACTAG),1.3
25,CTACGTACTTGGGTTCTAACCTGTTGCCT (site GTACGTACTAG),0.0661
26,CTACGTACTTGGGTTCTAACCTGTTGCCT (site TTACGTACTAG),0.0415

row,Sequence,recombinant barcode read abundance (log10)
1,CTACGTACTTGGGTTCTAACCTGTTGCTG (site CTACGAACTCA),0.0136
2,CTACGTACTTGGGTTCTAACCTGTTGCTG (site CTACGCACTCA),0.138
3,CTACGTACTTGGGTTCTAACCTGTTGCTG (site CTACGGACTCA),0.0671
4,CTACGTACTTGGGTTCTAACCTGTTGCTG (site CTACGTACTCA),1.75
5,CTACTAACTTGGGTTCTAACCTGTTGCCT (site CTACTAACTAA),0.0105
6,CTACTAACTTGGGTTCTAACCTGTTGCCT (site CTACTAACTAC),0.0952
7,CTACTAACTTGGGTTCTAACCTGTTGCCT (site CTACTAACTAG),1.3
8,CTACTAACTTGGGTTCTAACCTGTTGCCT (site CTACTAACTAT),0.182
9,CTACTAGCTTGGGTTCTAACCTGTTGCAC (site CTACTAGCTAT),0.0299
10,CTACTAGCTTGGGTTCTAACCTGTTGCAC (site CTACTAGCTCT),0.433
11,CTACTAGCTTGGGTTCTAACCTGTTGCAC (site CTACTAGCTGT),1.66
12,CTACTAGCTTGGGTTCTAACCTGTTGCAC (site CTACTAGCTTT),0.727
13,CTACTTACTTGGGTTCTAACCTGTTGCCT (site CTAATTACTAG),0.0298
14,CTACTTACTTGGGTTCTAACCTGTTGCCT (site CTACTTACTAG),0.741
15,CTACTTACTTGGGTTCTAACCTGTTGCCT (site CTAGTTACTAG),0
16,CTACTTACTTGGGTTCTAACCTGTTGCCT (site CTATTTACTAG),0.1
17,CTAGAAGCTTGGGTTCTAACCTGTTGCGG (site CTAGAAGCTCC),1.31
18,CTAGAAGCTTGGGTTCTAACCTGTTGCGG (site CTGGAACCTCC),0.401
19,CTAGACTCTTGGGTTCTAACCTGTTGCTA (site CTAGACTCTAA),0.587
20,CTAGACTCTTGGGTTCTAACCTGTTGCTA (site CTAGACTCTCA),0.234
21,CTAGACTCTTGGGTTCTAACCTGTTGCTA (site CTAGACTCTGA),0.117
22,CTAGACTCTTGGGTTCTAACCTGTTGCTA (site CTAGACTCTTA),2.7
23,CTAGAGTCTTGGGTTCTAACCTGTTGCTT (site CTAGAGTCTAA),2.66
24,CTAGAGTCTTGGGTTCTAACCTGTTGCTT (site CTAGCGTCTAA),0.0496
25,CTAGATTCTTGGGTTCTAACCTGTTGCCT (site CAAGATTCTAG),0.167

# Reference: the supplement of paper PMC11208160
